What is called Papp A→B is how fast a substance crosses the layer from the apical side.

The record followed here is patent publication US20250049806A1, “PHARMACEUTICAL COMPOSITION FOR PROVIDING TREATMENT FOR OR PREVENTING ALPORT SYNDROME” (UBE Corporation, priority 2021, published 2025).

The nature of the data set: Transcellular transport test using Caco2 cell. The note with it: human, Caco-2, apical-to-basolateral (A-to-B), pH=7.4, 10 µM compound. In kind it is in vitro ADME. As for the experimental part:
Caco2 cells (purchased from ATCC) were cultured in DMEM medium (Thermo Fisher Scientific, Inc., 11965) containing 10% FBS (Thermo Fisher Scientific, Inc., 10082) and 1% penicillin/streptomycin/amphotericin B (Thermo Fisher Scientific, Inc., 15240). A transcellular transport test was carried out in accordance with MultiScreen Caco2 Drug Transport Assembly in a 96-well system (Application Note AN1727EN, MultiScreen Caco-2 Assay System, Merck) by partially modifying it. The Caco2 cells were inoculated at a cell density of 4×10^4 cells/well onto a micropore polycarbonate insert of a 96-well plate (Merck, Millcell-96 culture insert plate 0.4 μm pore size, well membrane area=0.11 cm^2, PSHT004S5) and cultured for 20 to 22 days, and the resulting monolayer was used in the transcellular transport test. The medium of the inoculated cells was replaced with a fresh one every 3 to 4 days.
Apical-to-basolateral (A-to-B) transport in the Caco2 cell monolayer membrane was performed by using HBSS (Thermo Fisher Scientific, Inc., 14025) medium (pH=7.4) containing 20 mM HEPES (Thermo Fisher Scientific, Inc., 15630), and adding HEPES-containing HBSS medium containing 10 µM compound (a 10 mM solution of the compound in DMSO was added at a 1000-fold dilution; final DMSO concentration: 0.1%) at 75 μL/well to the apical side and HEPES-containing HBSS medium supplemented with no compound at 250 μL/well to the basolateral side, followed by culture at 37° C. for 90 minutes. After culture, a 100 μL aliquot was collected from the basolateral side, and the concentration of a permeated compound was measured by LC-MS/MS under measurement conditions mentioned later. Papp (apparent permeability; cm/sec) was calculated from the determined concentration. Papp was determined according to the expression given below by calculating the slope (dA/dt; nmol/sec) of a straight line drawn between two points 0 minutes and zero amount of the compound in a graph plotted with an assay time (90 min) on the abscissa against the amount of the compound in the solution on the permeated side on the ordinate. As for an assay concentration, the concentration in the compound in the HEPES-containing HBSS medium containing the added compound was measured by UV-HPLC under measurement conditions mentioned later.
C0: assay concentration, S: plate membrane area=0.11 cm^2
• LC: LC20 or LC30 HPLC system manufactured by Shimadzu Corp. • Column: Phenomenex Kinetex C18 (50 mm×2.1 mm, 2.6 μm) • Column temperature: 40° C. • Flow rate: 0.3 mL/min • Mobile phase A: 0.1% aqueous formic acid solution • Mobile phase B: 0.1% formic acid, 50% acetonitrile/methanol mixed solution • Gradient: 0-2 min; A/B=90/10 to 10/90, 2-3 min; A/B=10/90, 3-3.01 min; A/B=10/90 to 90/10 • MS: Q-Trap3200 manufactured by AB Sciex Pte. Ltd. • Ionization: ESI • Mode: Positive
• LC: LC20 or LC30 HPLC system manufactured by Shimadzu Corp. • Column: Phenomenex Kinetex C18 (100 mm×2.1 mm, 2.6 μm) • Column temperature: 40° C. • Flow rate: 0.25 mL/min • Mobile phase A: 0.1% aqueous formic acid solution • Mobile phase B: 0.1% formic acid, 50% acetonitrile/methanol mixed solution • Gradient: 0-3 min; A/B=90/10, 3-11 min; A/B=90/10 to 5/95, 11-15 min; A/B=5/95, 15-15.1 min; A/B=5/95 to 90/10 • UV detector: photodiode array detector
A: Papp>1×10^−6 (cm/sec), B: 1×10^−6 (cm/sec)≥Papp>5×10^−7 (cm/sec), C: 5×10^−7 (cm/sec)≥Papp>1×10^−7 (cm/sec), or D: Papp≤1×10^−7 (cm/sec).
(Caco-2 monolayers are a common model of the intestinal barrier.)
Regarding `O=C(O)C[C@H](NC(=O)CNC(=O)c1cc(NC2=NCC(F)CN2)c2cn[nH]c2c1)c1cc(Br)cc(Br)c1` (stereo partly drawn) [19-(b), (3S)-3-(3,5-dibromophenyl)-3-(2-(4-((5-fluoro-1,4,5,6-tetrahydropyrimidin-2-yl)amino)-1H-indazole-6-carboxamido)acetamido)propanoic acid], the Papp A→B at 90 min, 10 µM is over 1 ×10⁻⁶ cm/s.
Next, `O=C(O)C[C@H](NC(=O)CNC(=O)c1cc(NC2=NCC(F)CN2)c2cn[nH]c2c1)c1cc(Br)cc(I)c1` (stereo partly drawn) [20-(b), (3S)-3-(3-bromo-5-iodophenyl)-3-(2-(4-((5-fluoro-1,4,5,6-tetrahydropyrimidin-2-yl)amino)-1H-indazole-6-carboxamido)acetamido)propanoic acid]: over 1 ×10⁻⁶ cm/s.
Next, `O=C(O)C[C@H](NC(=O)CNC(=O)c1cc(NC2=NCC(F)CN2)c2cn[nH]c2c1)c1cc(OC(F)(F)F)ccc1F` (stereo partly drawn) [33-(b), (3S)-3-(2-(4-((5-fluoro-1,4,5,6-tetrahydropyrimidin-2-yl)amino)-1H-indazole-6-carboxamido)acetamido)-3-(2-fluoro-5-(trifluoromethoxy)phenyl)propanoic acid]: over 1 ×10⁻⁶ cm/s.
Next, `O=C(O)C[C@H](NC(=O)CNC(=O)c1cc(NC2=NCC(F)CN2)c2cn[nH]c2c1)c1cc(Cl)c(F)c(C(F)(F)F)c1` (stereo partly drawn) [15-(b), (3S)-3-(3-chloro-4-fluoro-5-(trifluoromethyl)phenyl)-3-(2-(4-((5-fluoro-1,4,5,6-tetrahydropyrimidin-2-yl)amino)-1H-indazole-6-carboxamido)acetamido)propanoic acid]: over 1 ×10⁻⁶ cm/s.
As to `O=C(O)C[C@H](NC(=O)CNC(=O)c1cc(NC2=NCC(F)CN2)c2cn[nH]c2c1)c1cccc(N2CCOCC2)c1` (stereo partly drawn) [45-(b), (3S)-3-(2-(4-((5-fluoro-1,4,5,6-tetrahydropyrimidin-2-yl)amino)-1H-indazole-6-carboxamido)acetamido)-3-(3-morpholinophenyl)propanoic acid], the Papp A→B at 90 min, 10 µM is 0.5 to 1 ×10⁻⁶ cm/s.
Next, `O=C(O)C[C@H](NC(=O)CNC(=O)c1cc(NC2=NCC(F)CN2)c2cn[nH]c2c1)c1cc(-n2cccn2)cc(C(F)(F)F)c1` (stereo partly drawn) [8-(b), (3S)-3-(3-(1H-pyrazol-1-yl)-5-(trifluoromethyl)phenyl)-3-(2-(4-((5-fluoro-1,4,5,6-tetrahydropyrimidin-2-yl)amino)-1H-indazole-6-carboxamido)acetamido)propanoic acid]: 0.5 to 1 ×10⁻⁶ cm/s.
Next, `O=C(O)C[C@H](NC(=O)CNC(=O)c1cc(NC2=NCC(F)CN2)c2cn[nH]c2c1)c1cc(Br)ccc1F` (stereo partly drawn) [23-(b), (3S)-3-(5-bromo-2-fluorophenyl)-3-(2-(4-((5-fluoro-1,4,5,6-tetrahydropyrimidin-2-yl)amino)-1H-indazole-6-carboxamido)acetamido)propanoic acid]: over 1 ×10⁻⁶ cm/s; `O=C(O)C[C@H](NC(=O)CNC(=O)c1cc(NC2=NCC(F)CN2)c2cn[nH]c2c1)c1cc(OC(F)F)cc(C(F)(F)F)c1` (stereo partly drawn) [24-(b), (3S)-3-(3-(difluoromethoxy)-5-(trifluoromethyl)phenyl)-3-(2-(4-((5-fluoro-1,4,5,6-tetrahydropyrimidin-2-yl)amino)-1H-indazole-6-carboxamido)acetamido)propanoic acid]: 0.5 to 1 ×10⁻⁶ cm/s.
Next, `O=C(O)C[C@H](NC(=O)CNC(=O)c1cc(NC2=NCC(F)CN2)c2cn[nH]c2c1)c1cccc(OC(F)(F)F)c1` (stereo partly drawn) [36-(b), (3S)-3-(2-(4-((5-fluoro-1,4,5,6-tetrahydropyrimidin-2-yl)amino)-1H-indazole-6-carboxamido)acetamido)-3-(3-(trifluoromethoxy)phenyl)propanoic acid]: over 1 ×10⁻⁶ cm/s; `Cc1cc(C)n(-c2cccc([C@H](CC(=O)O)NC(=O)CNC(=O)c3cc(NC4=NCC(F)CN4)c4cn[nH]c4c3)c2)n1` (stereo partly drawn) [44-(b), (3S)-3-(3-(3,5-dimethyl-1H-pyrazol-1-yl)phenyl)-3-(2-(4-((5-fluoro-1,4,5,6-tetrahydropyrimidin-2-yl)amino)-1H-indazole-6-carboxamido)acetamido)propanoic acid]: 0.5 to 1 ×10⁻⁶ cm/s; `O=C(O)C[C@H](NC(=O)CNC(=O)c1cc(NC2=NCC(F)CN2)c2cn[nH]c2c1)c1cccc(C(F)(F)F)c1` (stereo partly drawn) [35-(b), (3S)-3-(2-(4-((5-fluoro-1,4,5,6-tetrahydropyrimidin-2-yl)amino)-1H-indazole-6-carboxamido)acetamido)-3-(3-(trifluoromethyl)phenyl)propanoic acid]: over 1 ×10⁻⁶ cm/s.
Compound `Cc1cc([C@H](CC(=O)O)NC(=O)CNC(=O)c2cc(NC3=NCC(F)CN3)c3cn[nH]c3c2)cc(C(F)(F)F)c1` (stereo partly drawn) [4-(b), (3S)-3-(2-(4-((5-fluoro-1,4,5,6-tetrahydropyrimidin-2-yl)amino)-1H-indazole-6-carboxamido)acetamido)-3-(3-methyl-5-(trifluoromethyl)phenyl)propanoic acid] showed a Papp A→B at 90 min, 10 µM of over 1 ×10⁻⁶ cm/s.
Next, `O=C(O)C[C@H](NC(=O)CNC(=O)c1cc(NC2=NCC(F)CN2)c2cn[nH]c2c1)c1cc(I)cc(C(F)(F)F)c1` (stereo partly drawn) [3-(b), (3S)-3-(2-(4-((5-fluoro-1,4,5,6-tetrahydropyrimidin-2-yl)amino)-1H-indazole-6-carboxamido)acetamido)-3-(3-iodo-5-(trifluoromethyl)phenyl)propanoic acid]: over 1 ×10⁻⁶ cm/s; `O=C(O)C[C@H](NC(=O)CNC(=O)c1cc(NC2=NCC(F)CN2)c2cn[nH]c2c1)c1cc(C(F)(F)F)ccc1Cl` (stereo partly drawn) [12-(b), (3S)-3-(2-chloro-5-(trifluoromethyl)phenyl)-3-(2-(4-((5-fluoro-1,4,5,6-tetrahydropyrimidin-2-yl)amino)-1H-indazole-6-carboxamido)acetamido)propanoic acid]: over 1 ×10⁻⁶ cm/s.
Next, `O=C(O)C[C@H](NC(=O)CNC(=O)c1cc(NC2=NCC(F)CN2)c2cn[nH]c2c1)c1cccc(Br)c1` (stereo partly drawn) [42-(b), (3S)-3-(3-bromophenyl)-3-(2-(4-((5-fluoro-1,4,5,6-tetrahydropyrimidin-2-yl)amino)-1H-indazole-6-carboxamido)acetamido)propanoic acid]: over 1 ×10⁻⁶ cm/s; `O=C(O)C[C@H](NC(=O)CNC(=O)c1cc(NC2=NCC(F)CN2)c2cn[nH]c2c1)c1ccc(F)c(OC(F)(F)F)c1` (stereo partly drawn) [34-(b), (3S)-3-(2-(4-((5-fluoro-1,4,5,6-tetrahydropyrimidin-2-yl)amino)-1H-indazole-6-carboxamido)acetamido)-3-(4-fluoro-3-(trifluoromethoxy)phenyl)propanoic acid]: over 1 ×10⁻⁶ cm/s.
Next, `O=C(O)C[C@H](NC(=O)CNC(=O)c1cc(NC2=NCC(F)CN2)c2cn[nH]c2c1)c1cc(Cl)cc(OC(F)F)c1` (stereo partly drawn) [25-(b), (3S)-3-(3-chloro-5-(difluoromethoxy)phenyl)-3-(2-(4-((5-fluoro-1,4,5,6-tetrahydropyrimidin-2-yl)amino)-1H-indazole-6-carboxamido)acetamido)propanoic acid]: over 1 ×10⁻⁶ cm/s.
Take `O=C(O)C[C@H](NC(=O)CNC(=O)c1cc(NC2=NCC(F)CN2)c2cn[nH]c2c1)c1cccc(OC(F)F)c1` (stereo partly drawn) [37-(b), (3S)-3-(3-(difluoromethoxy)phenyl)-3-(2-(4-((5-fluoro-1,4,5,6-tetrahydropyrimidin-2-yl)amino)-1H-indazole-6-carboxamido)acetamido)propanoic acid]: the Papp A→B at 90 min, 10 µM was over 1 ×10⁻⁶ cm/s.
Next, `COc1cc([C@H](CC(=O)O)NC(=O)CNC(=O)c2cc(NC3=NCC(F)CN3)c3cn[nH]c3c2)cc(C(F)(F)F)c1` (stereo partly drawn) [5-(b), (3S)-3-(2-(4-((5-fluoro-1,4,5,6-tetrahydropyrimidin-2-yl)amino)-1H-indazole-6-carboxamido)acetamido)-3-(3-methoxy-5-(trifluoromethyl)phenyl)propanoic acid]: 0.5 to 1 ×10⁻⁶ cm/s.
